US10047105B2, “Gyrase inhibitors” (Merck Sharp & Dohme Corp., priority 2009, dated 2018)
Converted amounts (≈) assume the structure as drawn.

Assays:
Type in all cases: cell-based
S. aureus ATCC 13709 = experiment: MIC, antibacterial potency, S. aureus; details: S. aureus (SA); in µg/mL
E. coli 8 ATCC 25922 = experiment: MIC, E. coli 8 (wt); details: E. coli 8 (EC8)
S. pneumoniae ATCC 51916 = experiment: MIC, S. pneumoniae; details: S. pneumoniae (Spn52); in µg/mL

MIC, SA (S. aureus ATCC 13709)	MIC EC8 (E. coli 8 ATCC 25922)	MIC Spn52 (S. pneumoniae ATCC 51916)	Structure (SMILES)
4	> 64 µg/mL	16	CCc1[nH]c2nc(Oc3cncc(C(N)=O)c3)ncc2c1Cl [701,265]
<=0.5	32 µg/mL (≈ 70.8 µM)	<=0.5	CCc1[nH]c2nc(Oc3ccc[n+]([O-])c3)nc(Oc3cccc(C#N)c3)c2c1Br [701,267]
<=0.5	4 µg/mL (≈ 8.38 µM)	<=0.5	CCc1[nH]c2nc(Oc3cncc(C#N)c3)nc(Oc3cc(O)cc(C#N)c3)c2c1Br [701,268]
<=0.5	8 µg/mL (≈ 17.1 µM)	<=0.5	CCc1[nH]c2nc(Sc3cnc4ccc[n+]([O-])c4c3)nc(N3C[C@@H]4[C@@H](CN)[C@@H]4C3)c2c1Cl [701,269]
<=0.5	32 µg/mL (≈ 68.2 µM)	4	CCc1[nH]c2nc(Sc3cnc4c(c3)c(=O)ncn4C)nc(N3CC4C(N)C4C3)c2c1Cl (stereo not drawn) [701,270]
<=0.5	16 µg/mL (≈ 31 µM)	<=0.5	CCc1[nH]c2nc(Oc3cncnc3)nc(Oc3cc(Cl)cc(N4CC(N)C4)c3)c2c1Br [701,273]
>64	> 64 µg/mL	>64	CCc1[nH]c2nc(Oc3cncc(C(N)=O)c3)nc(N3CC4C(N)C4C3)c2c1Cl (stereo not drawn) [701,278]
>64	> 64 µg/mL	>64	CCc1[nH]c2nc(Oc3ccc4nccnc4c3)nc(Oc3ccc(C#N)cc3Cl)c2c1Cl [701,286]
>64	> 64 µg/mL	>64	CCc1[nH]c2nc(Oc3ccc4nccnc4c3)nc(Oc3ccc(C#N)cc3Cl)c2c1Br [701,287]
<=0.5	> 64 µg/mL	1	CCc1[nH]c2nc(Oc3cnc(C)nc3)nc(Oc3cc(C#N)ccc3F)c2c1Br [701,288]
16	> 64 µg/mL	>64	CCc1[nH]c2nc(Oc3ccc4nccnc4c3)nc(OC3CCN(C(=O)OC(C)(C)C)CC3)c2c1Cl [701,289]
>64	> 64 µg/mL	64	CCc1[nH]c2nc(Oc3ccc4nccnc4c3)nc(OC3CCNCC3)c2c1Cl [701,290]
32	64 µg/mL (≈ 171 µM)	16	CCc1[nH]c2nc(Oc3cnc(C)nc3)nc(OC3CCNC3)c2c1Cl (stereo not drawn) [701,291]
32	> 32 µg/mL	>32	CCc1[nH]c2nc(Sc3cnc4c(c3)c(=O)ncn4C)nc(N3CC4C(N)C4C3)c2c1C (stereo not drawn) [701,292]
8	> 64 µg/mL	32	CCc1[nH]c2nc(Oc3cncnc3)nc(Oc3ccc4ncnc(N5CC(N)C5)c4c3)c2c1Cl [701,296]
4	> 64 µg/mL	16	CCc1[nH]c2nc(Oc3cncnc3)nc(Oc3ccc4ncnc(N5CC(N)C5)c4c3)c2c1Br [701,297]
2	> 64 µg/mL	4	CCc1[nH]c2nc(Oc3cncc(C#N)c3)nc(Oc3ccc4ncnc(N5CC(N)C5)c4c3)c2c1Br [701,298]
2	> 64 µg/mL	4	CCc1[nH]c2nc(Oc3ccc4ncnc(N5CC(N)C5)c4c3)nc(Oc3cncc(C#N)c3)c2c1Br [701,299]
<=0.5	4 µg/mL (≈ 8.83 µM)	<=0.5	CCc1[nH]c2nc(Oc3cncnc3)nc(Oc3cc(O)cc(C#N)c3)c2c1Br [701249-2]

Second part, the molecule before the results:

Structure (SMILES)	MIC, SA (S. aureus ATCC 13709)	MIC EC8 (E. coli 8 ATCC 25922)	MIC Spn52 (S. pneumoniae ATCC 51916)
CCc1[nH]c2nc(Sc3cncc(S(=O)(=O)N(C)C)c3)nc(N3CC[C@@H](N)C3)c2c1Cl [701,180]	16	> 64 µg/mL	32
CCc1[nH]c2nc(Sc3cncc(S(=O)(=O)N(C)C)c3)nc(N3CC4C(N)C4C3)c2c1Cl (stereo not drawn) [701,181]	2	> 64 µg/mL	8
CCc1[nH]c2nc(Sc3cncc(S(=O)(=O)N(C)C)c3)nc(N3CC[C@@H](N)C3)c2c1C [701,182]	>64	> 64 µg/mL	>64
CCc1[nH]c2nc(Sc3cncc(S(=O)(=O)N(C)C)c3)nc(N3CC4C(N)C4C3)c2c1C (stereo not drawn) [701,183]	16	> 64 µg/mL	64
CCc1[nH]c2nc(Sc3ccc4c(N5CC[C@@H](N)C5)cc(=O)oc4c3)nc(N3CC[C@@H](N)C3)c2c1Cl [701,184]	>64	> 64 µg/mL	>64
CCc1[nH]c2nc(Oc3cncnc3)nc(N3CC4C(N)C4C3)c2c1C (stereo not drawn) [701,193]	8	64 µg/mL (≈ 182 µM)	32
N[C@@H]1CCN(c2nc(Sc3cnc4cccnc4c3)nc3[nH]c(CC(F)(F)F)c(Cl)c23)C1 [701,209]	2	> 64 µg/mL	4
CCc1[nH]c2nc(Sc3ccc4cc5c([n+]([O-])c4c3)CCN(C(=O)CCCC[C@@H]3SC[C@@H]4NC(=O)N[C@@H]43)C5)nc(N3CC4C(C3)C4(N)C(N)=O)c2c1Cl (stereo partly drawn) [701,229]	4	> 64 µg/mL	32
CCc1[nH]c2nc(Oc3cncc(C(N)=O)c3)nc(C)c2c1Cl [701,231]	2	> 64 µg/mL	4
CCc1[nH]c2nc(Oc3ccc4nccnc4c3)nc(C)c2c1Cl [701,232]	1	> 64 µg/mL	4
CCc1[nH]c2nc(Oc3cncnc3)nc(Oc3ccc4nccnc4c3)c2c1C [701,233]	1.	> 64 µg/mL	8
NC1C2CN(c3nc(Sc4cnc5ccc[n+]([O-])c5c4)nc4[nH]c(CC(F)(F)F)c(Cl)c34)CC12 (stereo not drawn) [701,236]	>64	> 64 µg/mL	>64
CCc1[nH]c2nc(N3CCN(c4cc(C(=O)OC)nc5ccc(Cl)cc45)CC3)ncc2c1Cl [701,237]	>64	> 64 µg/mL	>64
CCc1[nH]c2nc(Oc3ccc4nccnc4c3)ncc2c1Cl [701,238]	4	> 64 µg/mL	32
CCc1[nH]c2nc(Sc3cnc4ncn(C)c(=O)c4c3)nc(N3CC4C(N)C4C3)c2c1C (stereo not drawn) [701,239]	2	64 µg/mL (≈ 143 µM)	16
Cc1nc(Sc2cncc(C(N)=O)c2)nc2[nH]c(C(C)O)c(Cl)c12 (stereo not drawn) [701,240]	>64	> 64 µg/mL	>64
CCc1[nH]c2nc(Oc3cncnc3)nc(Oc3cnc(N)nc3)c2c1Cl [701,241]	1	> 64 µg/mL	2
CCc1[nH]c2nc(Oc3cncnc3)nc(Oc3cc(O)cc(C#N)c3)c2c1Br [701,249]	<=0.5	8 µg/mL (≈ 17.7 µM)	<=0.5
CCc1[nH]c2nc(Oc3cncnc3)nc(Oc3cc(N)cc(C#N)c3)c2c1Br [701,250]	<=0.5	> 64 µg/mL	<=0.5
CCc1[nH]c2nc(Oc3cncnc3)nc(Oc3cccc(CNC)c3)c2c1Cl [701,251]	1	> 64 µg/mL	2
CCc1[nH]c2nc(Oc3cnc4cccnc4c3)nc(Oc3cccc(C#N)c3)c2c1Br [701,252]	<=0.5	> 64 µg/mL	<=0.5
CCc1[nH]c2nc(Oc3cccc(C#N)c3)nc(Oc3cncnc3)c2c1Br [701,253]	1	> 64 µg/mL	4
CCc1[nH]c2nc(Oc3cnc(C)nc3)nc(Oc3cnc(C)nc3)c2c1Br [701,254]	<=0.5	> 64 µg/mL	<=0.5
CCc1[nH]c2nc(Oc3cncc(C#N)c3)nc(Oc3cnc(N)nc3)c2c1Br [701,255]	<=0.5	> 64 µg/mL	<=0.5
CCc1[nH]c2nc(N3CCN(c4cc(C(=O)O)nc5ccc(Cl)cc45)CC3)ncc2c1Cl [701,260]	8	> 64 µg/mL	64
CCc1[nH]c2nc(Oc3cncc(C#N)c3)ncc2c1Cl [701,261]	4	> 64 µg/mL	16
CCc1[nH]c2nc(Sc3cnc4ccc[n+]([O-])c4c3)nc(N3CC(NS(C)(=O)=O)C3)c2c1Cl [701,263]	<=0.5	> 64 µg/mL	1
CCc1[nH]c2nc(Oc3cncnc3)nc(Oc3cc(O)cc(C#N)c3)c2c1Cl [701,264]	<=0.5	> 64 µg/mL	<=0.5
CCc1[nH]c2nc(Sc3cnc4ccc[n+]([O-])c4c3)nc(N3CC[C@@H](N)C3)c2c1Cl [701008-2]	<=0.5	4 µg/mL (≈ 9.05 µM)	1
CCc1[nH]c2nc(Sc3cnc4ccc[n+]([O-])c4c3)nc(N3CC4C(N)C4C3)c2c1Cl (stereo not drawn) [701009-2]	<=0.5	2 µg/mL (≈ 4.41 µM)	<=0.5
